In one series the test system is pHH3. Put plainly: In vivo PD in PC-3 CDX model: tumor pHH3 IHC, mitotic arrest (Example 4). The following applies: single dose. On the set-up: species or system Mus Musculus. How it is done: The objective of the research is to evaluate the in vivo PK/PD of test agents in treatment of PC-3 CDX model in Balb/c nude mice.
Each mouse was inoculated subcutaneously at the right flank with PC-3 tumor cells (10×10^6) in 0.2 mL of PBS for tumor development. The animals were randomized and dosed when the average tumor volume reached approximately 440 mm^3 for the PK/PD study. The test article administration and time points in each group were shown in the experimental design table.
Mice were randomly grouped based on tumor volume and dosed as experimental design. Plasma, serum, muscle and tumors were collected at 1 h, 2 h, 8 h, 24 h, 48 h, 72 h and 96 h post dosing.
3 tumors of a mouse cohort were embed into 1 FFPE block.
• 5 μm FFPE tissue section loaded on Ventana XT; • Deparaffinization was selected; • EDTA based CC1 Standard heat antigen retravel was selected; • Option 1 (Protein blocker, Invitrogen Cat #1890588) was selected and incubate for 32 Min; • CC3 antibody (CST Cat #9661) 1:200 dilution was applied and incubated for 60 min at 37° C. • Apply One Drop of [OMap anti-Rb HRP] […]

For series [1], the system named is 15 low-passage Champions TumorGraft models of human non-small cell lung cancer. Nature of the series: Panel of 15 NSCLC patient derived tumor xenografts (Champions PDX indication screen), overall. It counts as in vivo, Mus musculus. The following applies: weekly 3 mpk. How it is done: This study was conducted to evaluate the in vivo antitumor activity of BT5528 as monotherapy in 15 low-passage Champions TumorGraft® models.
Mice were implanted subcutaneously into the left flank with tumor fragments from one of the various models. After tumors grew to an average of 150-300 mm^3, mice were treated by IV administration Q7Dx4 (n=2) with vehicle or 3 mg/kg of BT5528. Effects on tumor growth were evaluated by measuring percent tumor growth inhibition (% TGI), and the number of complete responders (CR), partial responders (PR), and tumor-free survivors (TFS). Tolerability was assessed by body weight loss, lethality, and clinical signs of adverse treatment-related side effects. Tumor volumes and body weights were measured twice a week. […]
Stock mice were implanted with tumor cells from Champions TumorGraft® models CTG-0160, CTG-0170, CTG-0178, CTG-0192, CTG-0363, CTG-0808, CTG-0838, CTG-0848, CTG-1212, CTG-1502, CTG-1535, CTG-2011, CTG-2393, CTG-2539 or CTG-2540. […] Tumor growth was monitored twice a week using digital calipers and the tumor volume (TV) was calculated using the formula (0.52×[length×width^2]). […] After the initiation of dosing on Day 0, animals were weighed twice per week using a digital scale and TV was measured twice per week and also on the final day of study. […]

For the next series, the system named is CTG-0838. Put plainly: Champions TumorGraft NSCLC PDX efficacy, model CTG-0838. It counts as in vivo, Mus musculus. Here is the method:
Mice were implanted subcutaneously into the left flank with tumor fragments from one of the various models. After tumors grew to an average of 150-300 mm^3, mice were treated by IV administration Q7Dx4 (n=2) with vehicle or 3 mg/kg of BT5528. Effects on tumor growth were evaluated by measuring percent tumor growth inhibition (% TGI), and the number of complete responders (CR), partial responders (PR), and tumor-free survivors (TFS). Tolerability was assessed by body weight loss, lethality, and clinical signs of adverse treatment-related side effects. Tumor volumes and body weights were measured twice a week.
Dosing solutions of BT5528 […] were pre-formulated. These dosing solutions were stored at −80° C. in the dark. On each day of dosing, a frozen aliquot of each test agent was thawed, stored at 2-8° C. and used for dosing.
The animals used in this study are described below: • Species: Mus musculus • Strain: Athymic Nude-Foxn1^nu (immune-compromised) • Source: Envigo (Indianapolis, Ind., USA) • Number of animals per group: 2 • Age and sex: At least 6-8 weeks of age at start of dosing, female • Weight: At least 18 grams at start of dosing • Acclimation period: 3 days
Stock mice were implanted with tumor cells from Champions TumorGraft® models CTG-0160, CTG-0170, CTG-0178, CTG-0192, CTG-0363, CTG-0808, CTG-0838, CTG-0848, CTG-1212, CTG-1502, CTG-1535, CTG-2011, CTG-2393, CTG-2539 or CTG-2540. After the tumors reached 1000-1500 mm^3, they were harvested and the tumor fragments (approximately 5×5×5 mm^3) were implanted SC in the left flank of the female study mice. Each animal was implanted with a specific passage lot and documented. Tumor growth was monitored twice a week using digital calipers and the tumor volume (TV) was calculated using the formula (0.52×[length×width^2]). When the TV reached an average volume of 150-300 mm^3, animals were matched by tumor size and assigned into Vehicle Control and treatment groups (n=2/group) and dosing was initiated on Day 0. After the initiation of dosing on Day 0, animals were weighed twice per week using a digital scale and TV was measured twice per week and also on the final day of study. The study was completed when the mean tumor volume of Vehicle Control reached 1500 mm^3 or up to Day 60, whichever occurred first.
Beginning on Day 0, animals were observed daily and weighed twice weekly using a digital scale; data including individual and mean gram weights, mean percent weight change versus Day 0 (% vD0) were recorded for each group and % vD0 plotted at study completion. […] Treatment resulting in a mean % vD0>20% and/or >10% mortality was considered above the maximum tolerated dose. Maximum mean % vD0 (weight nadir) for each treatment group was reported at study completion.
Inhibition of tumor growth was determined by calculating the percent TGI (100%×[1−(final MTV−initial MTV of a treated group)/(final MTV−initial MTV of the control group)]). Treatment started on Day 0.
Additional endpoints used to evaluate efficacy were: the number of complete responders (CR), partial responders (PR), and tumor-free survivors (TFS). PRs were considered exclusive of CRs, as were TFS.
Statistical analyses of anti-tumor efficacy were performed using one-way ANOVA followed by Dunnett's multiple comparisons test (GraphPad Prism version 8.2.0). Significant p-values=<0.05.
Animals were dosed according to the schedule on Table 7-1. The study was terminated on Day 27.

Where [2] appears, read: CTG-0838, 3 mg/kg IV Q7Dx4, Day 0-27.

Broadly, the TGI is how far tumour growth fell short of that in controls. A lower TGI goes with a weaker effect on the tumour.

Structures are written as SMILES. Starred links: 1 amine or outer side, 2 acyl side, 3 side chain; linkers in the order of their positions; H or OH if unused. Non-standard residues stand in square brackets, D forms with d. Residues, ends and D or L forms follow the SMILES beside them. *: point of attachment. Dolaproine = CO[C@@H]([C@@H]1CCCN1)[C@@H](C)C(=O)O; Dil = CC[C@H](C)[C@H](NC)[C@@H](CC(=O)O)OC; PABC = O=C(OCc1ccc(N[*:1])cc1)[*:2]; X1 = O=C(CCCC(=O)*)ON1C(=O)CCC1=O; X2 = C[C@@H](N*)[C@@H](O)c1ccccc1; Cit = NC(=O)NCCC[C@H](N)C(=O)O; NMeV = CN[C@H](C(=O)O)C(C)C

As for `CC[C@H](C)[C@@H]([C@@H](CC(=O)N1CCC[C@H]1[C@H](OC)[C@@H](C)C(=O)N[C@H](C)[C@@H](O)c1ccccc1)OC)N(C)C(=O)[C@@H](NC(=O)[C@H](C(C)C)N(C)C(=O)OCc1ccc(NC(=O)[C@H](CCCNC(N)=O)NC(=O)[C@@H](NC(=O)CCCC(=O)ON2C(=O)CCC2=O)C(C)C)cc1)C(C)C` [BT5528] (X1-V[Cit][PABC][NMeV]V[Dil][Dolaproine]-X2), in the series on pHH3, the “mitotic arrest in tumor measurable by pHH3 IHC, time after dose” value is no more than 24 hours and the “mitotic arrest of tumor cells, time post-dose” value lay in the range of 24 to 48 h. In series [1], the “models with tumor growth inhibition of 50% or more” value is given as 10 out of 15. Also, the “mean body weight loss” value in the series on CTG-0838 (3 mg/kg IV Q7Dx4) was “no mean body weight loss”. Further, in the series on CTG-0838 (3 mg/kg IV Q7Dx4, Day 27), the “MTV (mean tumor volume)” value is reported as 269±128 mm^3 and the TGI was 97%. In the series with CTG-0838 (setting [2]), the “# CR (complete responders)” value is 0/0/0, the “# PR (partial responders)” value is 0/0/0 and the “# TFS (tumor-free survivors)” value is listed as 0/0/0. In addition, in the series with CTG-0838 (CTG-0838, 3 mg/kg IV Q7Dx4, Day 27), the “% TGI” value is given as 97%. For the same compound, the “Day 27 Tumor Volume Mean TV ± SEM” value in the series with CTG-0838 (CTG-0838, BT5528 3 mg/kg IV Q7Dx4, Day 27, n=2) is on record as 269 ± 128 mm^3.
